Measured values: patent publication US20250163006A1, “New Coolants, and Preparations Containing Same” (Symrise AG, priority 2022, published 2025)

biological target: T1, human TRPM8 receptor (Homo sapiens, UniProt Q7Z2W7); assay: Assay on TRPM8 modulators: Ca2+-sensitive dye (Fluo-4) fluorescence in HEK293-TRPM8 test cells; assay type: cell-based; design: relative TRPM8 activation: concentration or dose not given beside the values; settings: HEK293 cells recombinantly expressing human TRPM8
T1 construct: expressed in transfected cells; host or cells: HEK293, stably transfected, tetracycline-inducible expression
Source text: The starting point for cloning the human TRPM8 receptor is an LnCaP cDNA bank. This is commercially available (e.g. BioChain, Hayward, USA) or can be produced from the andro gene-sensitive human prostate adenocarcinoma cell line LnCaP (e.g. ATCC, CRL1740 or ECACC, 891 1021 1) using standard kits.
The coding TRPM8 sequence (see e.g. http://www. ncbi.nlm.nih.gov/entrez/viewer.fcgi?db=nuccore&id=109689694) can be PCR-amplified and cloned using standard methods. The human TRPM8 gene isolated in this way was used to produce the plasmid plnd_M8. Alternatively, the TRPM8 gene can also be produced synthetically.
A stably transfected HEK293 cell line was produced as a test cell system using human TRPM8 DNA. Preference was given to HEK293, which offers the possibility of inducing TRPM8 expression using tetracycline via the plasmid introduced.
A test similar to the test already described in the literature by Behrendt H. J. et al, Br. J. Pharmacol. 141, 2004, 737-745, is performed. The agonization or antagonization of the receptor can be quantified using a Ca^2+-sensitive dye (e.g. FURA, Fluo-4 etc.). Agonists alone cause an increase in the Ca^2+ signal; antagonists cause a reduction in the Ca^2+ signal in the presence of e.g. menthol (detected in each case using the Fluo-4 dye, which has different fluorescence properties due to Ca^2+ ions).
First, a fresh culture of transformed HEK cells is prepared in cell culture flasks in the usual way. The HEK293-TRPM8 test cells are detached from the cell culture flasks using trypsin and 40,000 cells/well are seeded with 100 μl medium in 96-well plates (Greiner #655948 poly-D-lysine-coated). To induce the TRPM8 receptor, tetracycline is added to the growth medium (DMEM/HG, 10% FCS tetracycline-free, 4 mM L-glutamine, 15 μg/ml blasticidin, 100 μg/ml hygromycin B, 1 μg/ml tetracycline).
On the following day, the cells are loaded with Fluo-4AM dye and the test is performed. Proceed as follows: Addition of 100 μl/well staining solution Ca-4 kit (RB 141, Molecular Devices) to each 100 μl medium (DMEM/HG, 10% FCS tetracycline-free, 4 mM L-glutamine, 15 μg/ml blasticidin, 100 μg/ml hygromycin B, 1 μg/ml tetracycline).
Incubation in incubator, 30 minutes/37° C./5% CO2, 30 minutes/RT.
Preparation of the test substances (different concentrations in 200 μl HBSS buffer), as well as positive controls (different concentrations of menthol, icilin or lonomycin in 200 μl HBSS buffer) and negative controls (only 200 μl HBSS buffer) Addition of the test substances in quantities of 50 μl/well and measurement of the fluorescence change (e.g. in the assay device FLIPR, Molecular Devices or NovoStar, BMG) at 485 nm excitation, 520 nm emission, and evaluation of the potency of the different substances/concentrations and determination of the ECG. e.g. in the FLIPR assay device, Molecular Devices or NovoStar, BMG) at 485 nm excitation, 520 nm emission, and evaluation of the potency of the various substances/concentrations and determination of the EC50 values.
The test substances are used in triplicates in concentrations of 0.1-200 μM in the assay. Normally, the compounds are kept ready in DMSO solutions and diluted down to a maximum DMSO concentration of 2% for the assay.
The activity of the active substances in relation to activation of the TRPM8 channel is determined using the assay described. This is done in a concentration-dependent manner. For each active substance, 6 to 10 concentrations are measured as standard. A mathematical method (4-parameter or 5-parameter logistic curve fitting) can be used to determine the EC50 value as the inflection point of the sigmoidal curve from the activity values determined. These are standard biochemical methods that are familiar to experts.

T1 sequence (Q7Z2W7 whole entry): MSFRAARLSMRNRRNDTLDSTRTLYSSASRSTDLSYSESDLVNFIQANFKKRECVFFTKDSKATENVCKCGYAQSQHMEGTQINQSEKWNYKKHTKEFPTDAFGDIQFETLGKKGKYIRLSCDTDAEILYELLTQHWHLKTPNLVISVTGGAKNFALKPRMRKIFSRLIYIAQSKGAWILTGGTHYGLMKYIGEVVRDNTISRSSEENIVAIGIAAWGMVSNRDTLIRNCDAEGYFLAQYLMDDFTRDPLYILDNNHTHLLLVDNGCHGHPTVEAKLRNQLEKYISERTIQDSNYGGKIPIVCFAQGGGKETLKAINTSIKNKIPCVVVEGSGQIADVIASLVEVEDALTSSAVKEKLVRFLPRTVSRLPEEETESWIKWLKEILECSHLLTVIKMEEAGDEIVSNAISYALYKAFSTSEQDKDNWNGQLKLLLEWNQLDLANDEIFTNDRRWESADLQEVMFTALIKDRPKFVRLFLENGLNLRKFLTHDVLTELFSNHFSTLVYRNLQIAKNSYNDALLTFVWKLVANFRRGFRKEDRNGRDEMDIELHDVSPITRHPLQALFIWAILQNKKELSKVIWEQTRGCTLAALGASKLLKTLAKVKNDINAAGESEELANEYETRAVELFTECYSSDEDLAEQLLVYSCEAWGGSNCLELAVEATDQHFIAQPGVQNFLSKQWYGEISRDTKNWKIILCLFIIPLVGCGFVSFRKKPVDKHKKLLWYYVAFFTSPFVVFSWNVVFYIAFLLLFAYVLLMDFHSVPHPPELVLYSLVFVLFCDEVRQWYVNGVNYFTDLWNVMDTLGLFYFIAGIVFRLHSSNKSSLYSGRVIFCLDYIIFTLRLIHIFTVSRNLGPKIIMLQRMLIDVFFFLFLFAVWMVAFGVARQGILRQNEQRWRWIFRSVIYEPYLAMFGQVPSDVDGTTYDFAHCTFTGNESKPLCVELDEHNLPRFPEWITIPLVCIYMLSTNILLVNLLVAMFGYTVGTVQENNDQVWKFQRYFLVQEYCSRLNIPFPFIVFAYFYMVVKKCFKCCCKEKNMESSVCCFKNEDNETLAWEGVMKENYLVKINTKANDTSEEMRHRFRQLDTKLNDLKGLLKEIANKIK

SMILES	relative TRPM8 activation [%]
COCCSc1nnc(-c2ccccc2)c(-c2ccccc2)n1 [Compound B-30, 3-(2-methoxyethyl-sulfanyl)-5,6-diphenyl-1,2,4-triazine]	41
CCCCSc1nnc(-c2ccccc2)c(-c2ccccc2)n1 [Compound B-31, 3-butylsulfanyl-5,6-diphenyl-1,2,4-triazine]	40
CCC(=O)CSc1nnc(-c2ccccc2)c(-c2ccccc2)n1 [Compound B-33, 1-[(5,6-diphenyl-1,2,4-triazin-3-yl)sulfanyl]butan-2-one]	25
CN(C)CCSc1nnc(-c2ccccc2)c(-c2ccccc2)n1 [Compound B-36, 2-[(5,6-diphenyl-1,2,4-triazin-3-yl)sulfanyl]-N,N-dimethyl-ethanamine]	20
CCSc1nnc(-c2ccccc2)c(-c2ccccc2)n1 [Compound B-37, 3-ethylsulfanyl-5,6-diphenyl-1,2,4-triazine]	13
COC(=O)Nc1nnc(-c2ccccc2)c(-c2ccccc2)n1 [Compound B-41, methyl N-(5,6-diphenyl-1,2,4-triazin-3-yl)carbamate]	8
CN(C)CCOc1nnc(-c2ccccc2)c(-c2ccccc2)n1 [Compound B-42, 2-[(5,6-diphenyl-1,2,4-triazin-3-yl)oxy]-N,N-dimethyl-ethanamine]	8
OCCSc1nnc(-c2ccccc2)c(-c2ccccc2)n1 [Compound B-46, 2-[(5,6-diphenyl-1,2,4-triazin-3-yl)sulfanyl]ethanol]	5
CCC(=O)Nc1nnc(-c2ccccc2)c(-c2ccccc2)n1 [Compound B-47, N-(5,6-diphenyl-1,2,4-triazin-3-yl)propanamide]	4
c1ccc(CSc2nnc(-c3ccccc3)c(-c3ccccc3)n2)cc1 [Compound B-49, 3-benzylsulfanyl-5,6-diphenyl-1,2,4-triazine]	3
c1ccc(-c2nnc(NCCC3CC3)nc2-c2ccccc2)cc1 [Compound B-50, N-(2-cyclopropylethyl)-5,6-diphenyl-1,2,4-triazin-3-amine]	3
c1ccc(-c2nnc(NC3COC3)nc2-c2ccccc2)cc1 [Compound B-51, N-(oxetan-3-yl)-5,6-diphenyl-1,2,4-triazin-3-amine]	3
O=C(COc1nnc(-c2ccccc2)c(-c2ccccc2)n1)NC1CC1 [Compound B-53, N-cyclopropyl-2-[(5,6-diphenyl-1,2,4-triazin-3-yl)oxy]acetamide]	2
OCC(O)CNc1nnc(-c2ccccc2)c(-c2ccccc2)n1 (centres unmarked) [Compound B-54, 3-[(5,6-diphenyl-1,2,4-triazin-3-yl)amino]propane-1,2-diol]	2
COCCNc1nnc(-c2ccccc2)c(-c2ccccc2)n1 [Compound B-55, N-(2-methoxyethyl)-5,6-diphenyl-1,2,4-triazin-3-amine]	2
NC(=O)Nc1nnc(-c2ccccc2)c(-c2ccccc2)n1 [Compound B-56, (5,6-diphenyl-1,2,4-triazin-3-yl)urea]	2
OCCNc1nnc(-c2ccccc2)c(-c2ccccc2)n1 [Compound B-58, 2-[(5,6-diphenyl-1,2,4-triazin-3-yl)amino]ethanol]	1
Cc1ccc(-c2nnc(SCC(=O)NC3CC3)nc2-c2ccc(C)cc2)cc1 [Compound B-62, 2-[[5,6-bis(p-tolyl)-1,2,4-triazin-3-yl]sulfanyl]-N-cyclopropyl-acetamide]	0
CSc1nnc(-c2ccccc2)c(-c2ccccc2)n1 [Compound B-64, 3-methylsulfanyl-5,6-diphenyl-1,2,4-triazine]	−3

Second part, the compound after the results:

relative TRPM8 activation [%]	SMILES
37	CC(Sc1nnc(-c2ccccc2)c(-c2ccccc2)n1)C(=O)NCC1CCCO1 (centres unmarked) [Compound B-32, 2-[(5,6-diphenyl-1,2,4-triazin-3-yl)sulfanyl]-N-(tetrahydrofuran-2-ylmethyl)propanamide]
25	CNC(=O)C(C)Sc1nncc(-c2ccccc2)n1 (centres unmarked) [Compound B-34, N-methyl-2-[(5-phenyl-1,2,4-triazin-3-yl)sulfanyl]propanamide]
11	Cc1ccc(-c2nnc(SC(C)C(=O)N3CCCC3)nc2-c2ccc(C)cc2)cc1 (centres unmarked) [Compound B-38, 2-[[5,6-bis(p-tolyl)-1,2,4-triazin-3-yl]sulfanyl]-1-pyrrolidin-1-yl-propan-1-one]
11	CC(Sc1nnc(-c2ccccc2)c(-c2ccccc2)n1)C(=O)N(C)C1CCCCC1 (centres unmarked) [Compound B-39, N-cyclohexyl-2-[(5,6-diphenyl-1,2,4-triazin-3-yl)sulfanyl]-N-methyl-propanamide]
9	CNC(=O)C(C)Sc1nnc(-c2ccc(OC)cc2)c(-c2ccc(OC)cc2)n1 (centres unmarked) [Compound B-40, 2-[[5,6-bis(4-methoxyphenyl)-1,2,4-triazin-3-yl]sulfanyl]-N-methyl-propanamide]
6	CNC(=O)CNc1nnc(-c2ccccc2)c(-c2ccccc2)n1 [Compound B-43, 2-[(5,6-diphenyl-1,2,4-triazin-3-yl)amino]-N-methyl-acetamide]
5	CC(Sc1nnc(-c2ccccc2)c(-c2ccccc2)n1)C(=O)O (centres unmarked) [Compound B-44, 2-[(5,6-diphenyl-1,2,4-triazin-3-yl)sulfanyl]propanoic acid]
5	CNC(=O)C(C)Sc1nnc(-c2ccc(O)cc2)c(-c2ccc(O)cc2)n1 (centres unmarked) [Compound B-45, 2-[[5,6-bis(4-hydroxyphenyl)-1,2,4-triazin-3-yl]sulfanyl]-N-methyl-propanamide]
4	CC(Sc1nnc(-c2ccccc2)c(-c2ccccc2)n1)C(=O)NCc1cccs1 (centres unmarked) [Compound B-48, 2-[(5,6-diphenyl-1,2,4-triazin-3-yl)sulfanyl]-N-(2-thienylmethyl) propanamide]
3	CNC(=O)COc1nnc(-c2ccccc2)c(-c2ccccc2)n1 [Compound B-52, 2-[(5,6-diphenyl-1,2,4-triazin-3-yl)oxy]-N-methyl-acetamide]
2	CNC(=O)C(C)Oc1nnc(-c2ccccc2)c(-c2ccccc2)n1 (centres unmarked) [Compound B-57, 2-[(5,6-diphenyl-1,2,4-triazin-3-yl)oxy]-N-methyl-propanamide]
1	CNC(=O)C(C)Sc1cnccn1 (centres unmarked) [Compound B-59, N-methyl-2-pyrazine-2-ylsulfanyl-propanamide]
1	CNC(=O)C(C)Sc1nnc(C)c(C)n1 (centres unmarked) [Compound B-60, 2-[(5,6-dimethyl-1,2,4-triazin-3-yl)sulfanyl]-N-methyl-propanamide]
1	CCC(Sc1nnc(-c2ccc(OC)c(OC)c2)c(-c2ccc(OC)c(OC)c2)n1)C(=O)NC1CCCC1 (centres unmarked) [Compound B-61, 2-[[5,6-bis(3,4-dimethoxyphenyl)-1,2,4-triazin-3-yl]sulfanyl]-N-cyclopentyl-butanamide]
−2	COC(=O)C(C)Nc1nnc(-c2ccccc2)c(-c2ccccc2)n1 (centres unmarked) [Compound B-63, methyl 2-[(5,6-diphenyl-1,2,4-triazin-3-yl)amino]propanoate]

same assay, conditions: TRPM8 activation, HEK293-TRPM8 cells, 6 to 10 concentrations, logistic curve fitting; read-out: EC50 value

EC50 [nM]	SMILES
1720	CCNC(=O)C1CC(C)CCC1C(C)C [WS-3, L-menthanecarboxylic acid N-ethylamide, reference compound]
